ChEMBL document CHEMBL1201862, “PubChem BioAssay data set” (2004)
The source made the active and inactive calls.

Columns and labels:
[1] = blockers of bursicon-stimulated LGR2 cAMP reporter – cell-based, HEK293, CRE-luciferase reporter, cherry pick, set 2, dose response (AID 743343); format: functional;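 note: transfected cells were stimulated with diluted bursicon conditioned medium after compound addition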
[2] = viability loss in HEK293 cells – cell-based, plate reader, cherry-picked samples, cytotoxicity control, dose response (AID 743446); format: functional
[3] = A549 cell cytotoxicity, dose response, cytotoxicity control, plate reader, cherry-pick, antagonist series (AID 743412); format: functional, cell-based
[4] = biological target: T1, Heat shock factor protein 1 (Mus musculus, UniProt P38532); assay: enhancement of HSF1-driven luciferase signal – cell-based, NIH3T3, luminescence, dose retest, confirmation (AID 435004); format: functional;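 note: stress induced by proteasome inhibitor MG132 added 30 min after compound; luciferase reporter driven by HSF1 response element in NIH3T3 cells; actives raise luminescence as potentiators of the MG132 stress response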
T1 sequence (P38532 whole entry): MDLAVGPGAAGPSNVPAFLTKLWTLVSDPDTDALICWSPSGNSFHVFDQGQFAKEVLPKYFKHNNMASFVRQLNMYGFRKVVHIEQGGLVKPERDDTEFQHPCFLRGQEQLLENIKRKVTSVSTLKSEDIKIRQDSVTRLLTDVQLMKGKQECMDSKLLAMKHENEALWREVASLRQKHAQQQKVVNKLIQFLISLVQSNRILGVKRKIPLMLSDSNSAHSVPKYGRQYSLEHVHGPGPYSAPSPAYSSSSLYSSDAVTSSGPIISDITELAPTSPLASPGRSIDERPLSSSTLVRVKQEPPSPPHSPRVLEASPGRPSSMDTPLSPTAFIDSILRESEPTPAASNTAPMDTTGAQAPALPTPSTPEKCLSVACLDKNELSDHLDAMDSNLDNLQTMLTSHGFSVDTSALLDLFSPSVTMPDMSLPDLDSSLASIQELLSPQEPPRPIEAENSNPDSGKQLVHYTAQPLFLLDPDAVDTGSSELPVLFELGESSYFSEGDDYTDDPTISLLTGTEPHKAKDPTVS

Protein RecA = biological target: T2, Protein RecA (Mycobacterium tuberculosis, UniProt P9WHJ3); assay: Fluorescence Cell-Free Homogeneous Dose Retest to Identify Inhibitors of RecA-Intein Splicing Activity. [Related pubchem assays (depositor defined):AID2097, AID2223, AID489010, AID492950]; format: functional
T2 sequence (P9WHJ3 whole entry): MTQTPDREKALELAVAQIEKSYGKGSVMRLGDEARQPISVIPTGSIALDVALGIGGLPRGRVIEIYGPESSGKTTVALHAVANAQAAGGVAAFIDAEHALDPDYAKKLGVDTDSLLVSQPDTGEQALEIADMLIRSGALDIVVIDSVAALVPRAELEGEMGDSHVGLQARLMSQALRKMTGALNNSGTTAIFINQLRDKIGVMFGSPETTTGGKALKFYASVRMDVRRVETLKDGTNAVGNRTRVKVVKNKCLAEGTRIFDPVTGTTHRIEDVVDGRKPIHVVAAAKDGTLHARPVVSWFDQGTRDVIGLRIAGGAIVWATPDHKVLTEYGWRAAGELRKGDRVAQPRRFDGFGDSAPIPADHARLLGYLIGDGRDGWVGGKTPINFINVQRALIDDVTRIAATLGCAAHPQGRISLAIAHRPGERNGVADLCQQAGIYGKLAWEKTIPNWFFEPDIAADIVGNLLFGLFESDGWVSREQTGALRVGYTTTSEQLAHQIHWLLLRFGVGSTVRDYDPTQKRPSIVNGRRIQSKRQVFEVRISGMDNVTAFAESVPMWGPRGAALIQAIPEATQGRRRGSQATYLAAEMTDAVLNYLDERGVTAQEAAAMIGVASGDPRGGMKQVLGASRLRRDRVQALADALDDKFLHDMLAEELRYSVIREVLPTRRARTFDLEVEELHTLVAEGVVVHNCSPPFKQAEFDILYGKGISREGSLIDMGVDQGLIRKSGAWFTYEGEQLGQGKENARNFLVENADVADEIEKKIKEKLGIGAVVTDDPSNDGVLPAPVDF

[5] = toxicity toward HepG2 liver cells – cell-based, plate reader, cherry-pick, antagonist series, cytotoxicity control, dose response (AID 743416); format: functional
[6] = biological target: T3, Replicative DNA helicase DnaB (Mycobacterium tuberculosis, UniProt P9WMR3); assay: DnaB intein splicing inhibitors, dose response, biochemical, cell-free fluorescence (AID 449749); format: functional
T3 sequence (P9WMR3 whole entry): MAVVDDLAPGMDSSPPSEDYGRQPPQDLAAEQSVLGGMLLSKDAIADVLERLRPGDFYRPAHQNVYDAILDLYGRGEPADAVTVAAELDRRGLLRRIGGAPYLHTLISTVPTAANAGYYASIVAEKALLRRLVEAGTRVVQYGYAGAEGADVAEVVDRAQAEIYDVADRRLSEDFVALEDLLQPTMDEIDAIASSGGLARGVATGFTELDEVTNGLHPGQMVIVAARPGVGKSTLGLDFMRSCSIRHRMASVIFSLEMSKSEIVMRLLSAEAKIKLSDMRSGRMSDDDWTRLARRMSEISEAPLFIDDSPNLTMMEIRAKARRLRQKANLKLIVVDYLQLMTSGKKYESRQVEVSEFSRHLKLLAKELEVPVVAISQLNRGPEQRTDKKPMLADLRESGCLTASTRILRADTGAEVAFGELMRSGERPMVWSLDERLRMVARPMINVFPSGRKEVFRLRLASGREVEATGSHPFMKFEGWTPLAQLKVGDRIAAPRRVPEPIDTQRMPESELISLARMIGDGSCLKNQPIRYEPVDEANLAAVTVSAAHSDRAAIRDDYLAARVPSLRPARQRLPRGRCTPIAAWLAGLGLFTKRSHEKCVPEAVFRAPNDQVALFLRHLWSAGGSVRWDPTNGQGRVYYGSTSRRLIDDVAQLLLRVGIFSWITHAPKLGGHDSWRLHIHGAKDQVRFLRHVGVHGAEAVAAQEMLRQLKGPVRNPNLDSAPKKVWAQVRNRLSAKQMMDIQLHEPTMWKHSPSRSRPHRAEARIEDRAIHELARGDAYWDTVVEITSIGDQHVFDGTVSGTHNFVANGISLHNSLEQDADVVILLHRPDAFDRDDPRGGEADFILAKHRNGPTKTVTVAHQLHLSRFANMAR

INS1 = assay: INS-1E survival protection against cytokine death – cell-based, luminescence, retest, dose response (AID 449756); format: functional; conditions: Rattus norvegicus;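 note: cell death triggered by IL-1 beta plus TNF-alpha plus IFN-gamma mixture; protective hits raise ATP signal compared with cytokine alone wells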
[7] = Trypanosoma cruzi growth suppression in host cells – NIH3T3 host cells, beta-gal luminescence, confirmation (AID 2044); format: functional, cell-based;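 note: intracellular parasites grown in NIH/3T3 mouse fibroblasts as host cells; luminescent beta-galactosidase reporter signal from transgenic T. cruzi replicating inside host cells; inhibitors lower the luminescence signal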
[8] = NIH3T3 cell viability loss – ATP luminescence, mouse fibroblasts, counter-screen, dose response (AID 2010); format: functional, cell-based;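 note: cells exposed to compound for about 90 hours before reading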
[9] = Luminescence Cell-Based Dose Retest to Confirm Inhibitors of Cancer Stem Cells. [Related pubchem assays (depositor defined):AID2717, AID2721]; format: functional; conditions: Homo sapiens
[10] = biological target: T4, Ubiquitin-conjugating enzyme E2 N (Homo sapiens, UniProt P61088); format: functional;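 note: Dose-response confirmation in a TR-FRET assay detecting UBC13-driven polyubiquitin chain formation, inhibition measured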
T4 sequence (P61088 whole entry): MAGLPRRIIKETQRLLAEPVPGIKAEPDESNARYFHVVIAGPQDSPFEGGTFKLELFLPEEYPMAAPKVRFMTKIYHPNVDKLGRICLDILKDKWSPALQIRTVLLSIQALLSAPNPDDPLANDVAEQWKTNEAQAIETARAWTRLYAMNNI

Cytochrome P450 3A4 = Cytochrome P450 3A4 (Homo sapiens, UniProt P08684); conditions: Potency;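 note: confirmatory qHTS run detecting inhibitors and substrates of CYP3A4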
Chain of Cytochrome P450 3A4 (P08684 whole entry): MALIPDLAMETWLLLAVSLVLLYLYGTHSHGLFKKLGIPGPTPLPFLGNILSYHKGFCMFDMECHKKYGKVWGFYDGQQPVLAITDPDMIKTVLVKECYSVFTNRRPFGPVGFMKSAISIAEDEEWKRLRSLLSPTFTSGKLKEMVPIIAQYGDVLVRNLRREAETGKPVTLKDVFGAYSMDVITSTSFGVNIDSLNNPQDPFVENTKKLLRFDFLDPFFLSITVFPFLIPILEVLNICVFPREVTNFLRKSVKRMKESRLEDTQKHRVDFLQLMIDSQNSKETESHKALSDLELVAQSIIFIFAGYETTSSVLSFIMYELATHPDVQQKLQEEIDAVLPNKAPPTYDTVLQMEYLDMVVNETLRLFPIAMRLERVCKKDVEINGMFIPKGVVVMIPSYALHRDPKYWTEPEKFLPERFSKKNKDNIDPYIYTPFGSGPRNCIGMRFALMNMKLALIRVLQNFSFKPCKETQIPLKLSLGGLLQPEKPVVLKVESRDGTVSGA

Large T antigen = Large T antigen (Simian virus 40, UniProt P03070); format: functional, Betapolyomavirus macacae;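 note: Confirmatory-stage PubChem screen for compounds that inhibit SV40 T antigen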
Chain of Large T antigen (P03070 whole entry): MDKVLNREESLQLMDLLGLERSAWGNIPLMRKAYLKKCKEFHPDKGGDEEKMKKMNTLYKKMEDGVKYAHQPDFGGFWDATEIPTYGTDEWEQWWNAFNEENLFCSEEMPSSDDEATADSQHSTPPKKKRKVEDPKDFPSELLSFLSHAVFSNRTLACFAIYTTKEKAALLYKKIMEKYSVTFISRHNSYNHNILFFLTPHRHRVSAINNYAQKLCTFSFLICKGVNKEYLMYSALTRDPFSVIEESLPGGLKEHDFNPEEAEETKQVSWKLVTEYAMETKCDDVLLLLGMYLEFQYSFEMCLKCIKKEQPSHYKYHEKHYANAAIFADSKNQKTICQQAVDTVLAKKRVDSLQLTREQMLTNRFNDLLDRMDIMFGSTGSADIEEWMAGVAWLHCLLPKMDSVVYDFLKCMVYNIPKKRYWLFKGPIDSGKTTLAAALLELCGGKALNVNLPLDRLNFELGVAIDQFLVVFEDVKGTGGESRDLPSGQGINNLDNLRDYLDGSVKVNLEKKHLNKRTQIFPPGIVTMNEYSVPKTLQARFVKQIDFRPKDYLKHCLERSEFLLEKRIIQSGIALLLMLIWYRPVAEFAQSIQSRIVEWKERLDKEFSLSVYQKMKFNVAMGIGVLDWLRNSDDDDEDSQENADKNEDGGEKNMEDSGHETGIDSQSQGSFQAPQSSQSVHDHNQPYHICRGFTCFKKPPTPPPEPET

[11] = blockade of melanocortin 4 receptor signaling – cell-based, plate reader, cherry pick, counter-screen for LGR2 antagonist project, dose response (AID 743444); format: functional;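 note: transfected HEK 293 cells stimulated with alpha-MSH peptide; potency of inhibitors of the alpha-MSH evoked signal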
P388 = assay: cells; format: functional; conditions: Mus musculus
SN12K1 = assay: cells; format: functional; conditions: Homo sapiens
P388/ADR = assay: cells; format: functional; conditions: Mus musculus
[12] = P. falciparum Dd2 growth inhibitors, dose response, SYBR Green, cherry-picked samples (AID 1159567); format: functional, cell-based

## COc1ccc(-c2cc(C(F)(F)F)nc(S(=O)(=O)CCCC(=O)Nc3cccc(O)c3)n2)cc1OC
[1]
  AC50: 11.8 µM (active)
[2]
  AC50: 10.5 µM (active)
[3]
  AC50: 24.2 µM (active)
[4]
  EC50: 7.17 µM (active)
Protein RecA
  EC50: 11.3 µM (active)
[5]
  AC50: 12.7 µM (active)
[6]
  AC50: 162 µM (active)

## O=C(NC(NC(=S)Nc1ccccc1)C(Cl)(Cl)Cl)c1cccc(Cl)c1 (stereo not given)
INS1
  AC50: 8.54 µM (active)
[7]
  EC50: 2.31 µM (active)
[8]
  EC50: > 60 µM (not active)
[9]
  AC50: 4.73 µM (active)

## CCn1c(=O)cc(C(F)(F)F)[nH]c1=S
[10]
  IC50: > 20 µM (inactive)

## CC1(C)C(=O)C2C[C@]3(O)C4=CC(=O)OC(c5ccoc5)[C@]4(C)CCC3[C@](C)(C2=O)C1CC(=O)O (stereo not given in full)
Cytochrome P450 3A4
  AC50: 25.1 µM (inconclusive)

## COc1ccc(N2CCN(C(=O)NC3CC(=O)N(c4ccc(OC)cc4)C3)CC2)cc1 (stereo not given)
Large T antigen
  IC50: 43.3 µM (active)

## CCCCN1Cc2c(nc3cc(-c4ccco4)nn3c2O)C1=O
Large T antigen
  IC50: 35.6 µM (active)

## Cc1ccc(C(C(=O)NCC2CCCO2)N(C(=O)c2snc(C(N)=O)c2N)c2ccccc2F)o1 (stereo not given)
[10]
  IC50: > 20 µM (inactive)

## CC(=O)N1CC=CC1(CC(C)C)C(=O)NCc1ccc(C)o1 (stereo not given)
Cytochrome P450 3A4
  AC50: 15.8 µM (inconclusive)

## COC(=O)[C@@]1(C)C=C[C@@H](Cc2ccccc2)N1C(C)=O
Cytochrome P450 3A4
  AC50: 31.6 µM (inconclusive)

## CCCCNc1nc(C)nc2c1nc(-c1ccccc1)n2CCCCN(CC)CC
Cytochrome P450 3A4
  AC50: 12.6 µM (inconclusive)

## O=c1c2cc(Br)ccc2[nH]c(=S)n1-c1ccccc1
[10]
  IC50: > 20 µM (inactive)

## CCN1CCN(S(=O)(=O)c2ccc(Cl)c(C(=O)N(C)Cc3cccs3)c2)CC1
[10]
  IC50: > 20 µM (inactive)

## NC(c1ccccc1)c1csc(NC(=O)Nc2cccc(Cl)c2)n1 (stereo not given)
[1]
  AC50: 28.8 µM (active)
[2]
  AC50: 50.9 µM (active)
[3]
  AC50: 21.1 µM (active)
[11]
  AC50: 36.7 µM (active)
[5]
  AC50: 16.3 µM (active)

## CCCCCOc1ccc(/C=N\c2ccc(CCc3ccc(/N=C/c4ccc(OCCCCC)cc4)cc3)cc2)cc1
P388
  GI50: > 100 µM (inactive)
SN12K1
  GI50: > 100 µM (inactive)

## O=C(CCN1CCCCC1)C(=Cc1ccccc1)C(=O)CCN1CCCCC1
P388
  GI50: 15.6 µM (inactive)
P388/ADR
  GI50: 25.9 µM (inactive)
SN12K1
  GI50: 52.4 µM (inactive)

## Cc1occc1C(=O)N/N=C/C=C/c1ccc(N(C)C)cc1
Large T antigen
  IC50: 19.7 µM (active)

## C=C(C)C(=O)/N=C(\N)NC#N
P388
  GI50: 3.72 µM (inactive)
P388/ADR
  GI50: 10.4 µM (inactive)
SN12K1
  GI50: 26.4 µM (inactive)

## CN(C)CCNC(=O)c1cccc2c(=O)c3ccccc3oc12
P388
  GI50: 15 µM (inactive)
P388/ADR
  GI50: 28 µM (inactive)
SN12K1
  GI50: 19.7 µM (inactive)

## O=C(O)/C=C/C(=O)N1C/C(=C\c2ccccc2)C(=O)/C(=C/c2ccccc2)C1
P388
  GI50: 11.9 µM (inactive)
P388/ADR
  GI50: 13.8 µM (inactive)
SN12K1
  GI50: 1.82 µM (inactive)

## COc1cc(C2c3cc4c(cc3[C@@H](Nc3ccccc3)C3COC(=O)[C@H]23)OCO4)cc(OC)c1O (stereo not given in full)
P388
  GI50: < 0.01 µM (active)
P388/ADR
  GI50: 0.0344 µM (active)
SN12K1
  GI50: < 0.0164 µM (active)

## CCCCCCN(C(=O)CCCCCN1C(=O)NC(c2ccc(-c3ccccc3)cc2)C(C(=O)OCc2ccccc2)=C1C)C(C(=O)NCCCC)c1ccc(OCC(=O)O)c(C(=O)O)c1 (stereo not given)
Cytochrome P450 3A4
  AC50: 15.8 µM (inconclusive)

## Cc1ccccc1OCCCN1CCC(C(O)(c2ccccc2)c2ccccc2)CC1
[1]
  AC50: 19.9 µM (active)
[2]
  AC50: 16.1 µM (active)
[3]
  AC50: 25.7 µM (active)
[11]
  AC50: 18.5 µM (active)
[5]
  AC50: 22.6 µM (active)

## CC(C)NC(=O)N1[C@H](CO)[C@@H](c2ccccc2)C12CN(Cc1ccc(Cl)cc1)C2
[12]
  AC50: 4.74 µM (active)

## CO[C@@H]1CN(C)C(=O)c2cc(NC(=O)c3nc4ccccc4s3)ccc2OC[C@@H](C)N(Cc2ccccc2)C[C@H]1C
[12]
  AC50: 3.99 µM (active)

## CSC[S+]([O-])C[C@H](CO)NC(=O)/C=C/c1c(C)[nH]c(=O)[nH]c1=O (stereo not given in full)
P388
  GI50: 0.416 µM (active)
P388/ADR
  GI50: 1 µM (active)
SN12K1
  GI50: 1.31 µM (inactive)

## Nc1ccc(O)cc1 [4-AMINOPHENOL]
Cytochrome P450 3A4
  AC50: 25.1 µM (inconclusive)
Protein RecA
  EC50: > 380 µM (inconclusive)
[6]
  AC50: > 380 µM (inactive)

## COC(=O)[C@@]12OC[C@]34[C@H]([C@@H](O)[C@@H]1O)[C@@]1(C)CC(=O)C(O)=C(C)[C@@H]1C[C@H]3OC(=O)[C@H](OC(=O)/C=C(\C)C(C)C)[C@@H]24 [BRUCEANTIN]
P388
  GI50: 0.021 µM (active)
P388/ADR
  GI50: 0.0244 µM (active)
SN12K1
  GI50: 0.02 µM (active)

## C=CC(C1=CC(=O)C(OC)=CC1=O)c1ccc(O)cc1 (stereo not given) [DALBERGIONE, 4-METHOXY-4'-HYDROXY-]
Cytochrome P450 3A4
  AC50: 25.1 µM (inconclusive)

## Cc1cc(O)c2c(=O)c3c(O)cc(O)c4c5c(O)cc(O)c6c(=O)c7c(O)cc(C)c8c1c2c(c34)c(c78)c65 [HYPERICIN]
P388
  GI50: 11.9 µM (inactive)
P388/ADR
  GI50: 49.2 µM (inactive)
SN12K1
  GI50: 92.7 µM (inactive)
